# Results reported in publication PMC9241925, “DWV 3C Protease Uncovers the Diverse Catalytic Triad in Insect RNA Viruses” (Microbiology Spectrum, 2022).
# Read-outs that look alike come from different tables or passages of the source. Primed or numbered codes have the meaning given here. *: point of attachment. Dabcyl′ = CN(C)c1ccc(/N=N/c2ccc(C(=O)*)cc2)cc1; EDANS = O=S(=O)(O)c1cccc2c(NCCN*)cccc12
# How the values were obtained:
# [1] = biological target: T1, DWV 3C protease (GST-DWV 3C^pro) (Deformed wing virus, UniProt Q8B3M2); assay: FRET protease assay of GST-DWV 3C^pro with fluorogenic peptide substrate; type: biochemical; conditions: for IC50: pH 6.0, 33°C, n = 3, read-out: IC50 of DWV 3C^pro inhibitors; for Dependence of DWV 3C^pro inhibition on dithiothreitol: absence vs presence of 2 mM DTT
# T1 construct: cDNA corresponding to amino acid 2094–2353 of DWV polyprotein; made in house; host or cells: E. coli BL21
# Method: Dabcyl-PVQAKPEMDNPNPGE-Edans derived from the cleavage site between L-protein and VP2 (underlined, 205-218 of polyprotein) was used as a peptide substrate to measure the protease activity. E was added to the C-terminus to link Edans. FRET experiments were performed with Varioskan LUX multimode microplate reader (Thermo Fisher). We measured 100 μL of reaction mixture with 50 mM Citrate buffer, pH 6.0, 150 mM NaCl, 2 mM EDTA, 2 mM DTT containing 1 μM GST-DWV 3C^pro and 20 μM fluorogenic peptide substrate in a 96-well flat-bottom white microplate at 33°C. The relative fluorescence was measured using an excitation wavelength of 336 nm and by monitoring the emission at 490 nm every 3 min for 30 min. In order to determine the optimal reaction condition for GST-DWV 3C^pro, various pH values, temperatures, and DTT concentrations were used. To test the effect of DTT on the activity, the protein dialyzed against TNE buffer was used. To determine the velocity of product formation, we precalibrated the instrument with the free Edans standard in the presence of 20 μM Dabcyl to calculate the relationship between relative fluorescence and substrate concentration. We calculated the kinetic parameters, Km, Vmax, and catalytic efficiency (Kcat/Km) assuming Michaelis-Menten kinetics for the cleavage of peptide.
# To identify the inhibitors for DWV 3C^pro, various concentrations of the tested compounds were added. To determine the inhibitory effects of the various compounds, we preincubated the compound and enzyme on ice for 10 min prior to addition of the peptide substrate. To analyze the effects of ebselen, disulfiram, and carmofur, we used the enzyme dialyzed against TNE buffer and carried out the reaction with or without DTT. We determined the initial velocities of the enzymatic reactions and fitted to a sigmoidal dose-response equation with nonlinear regression analysis using GraphPad Prism 9. The data from three independent assays were used to determine IC50 value of each compound.
# DWV [2] = system: DWV; set-up: method as in PMID 33643262; conditions: based on the synthesis of RdRP, cited from earlier work
# enterovirus 3C^pro = system: enterovirus 3C^pro; set-up: method as in PMID 21813612, PMID 27645381, PMID 10197965; conditions: cited from earlier work
# human rhinovirus 3C^pro = system: human rhinovirus 3C^pro; set-up: method as in PMID 21813612, PMID 27645381, PMID 10197965; conditions: cited from earlier work
# DWV [3] = assay: DWV replication (RdRP precursor synthesis, Western blot) in DWV-infected honey bee pupal head cells; type: cell-based, Deformed wing virus (DWV)
# Method: Honey bee pupae with pale/pink eyes were collected from a mite-free colony. They were surface sterilized by washing with 10% bleach followed by sterile PBS three times (5 min for each wash). Heads from the pupae were dissected and homogenized seven times with 1 mL Grace culture medium using Dounce homogenizer (Loose fitting). The homogenate was then filtered through a cell strainer (Falcon) and the number of cells was counted. 10^6 cells were suspended in 100 μL of Grace medium containing 10% FBS, antibiotics (penicillin and streptomycin), and ebselen at the indicated concentration with or without DWV (MOI: 10) in 24-well plate at 33°C for 1 h. DWV used for this study was one of type A strains (VD-B7) we previously isolated from Varroa mite-infested pupa ([8]). […]
# After DWV infection, the pupal head cells were collected by centrifugation, and then homogenized with 150 μL of RIPA buffer (20 mM Tris-HCl, pH 7.5, 150 mM NaCl, 1% NP-40, 0.5% sodium deoxycholate, 0.1% SDS) containing protease inhibitor cocktail. After centrifugation of the homogenate, the protein concentration of supernatant was measured using Enhanced BCA protein assay kit. The cell lysate with 20 μg of protein was analyzed by Western blot for each sample. […] Band intensity of 97 kDa RdRP precursor was measured by image-J.
# [4] = system: main protease of SARS-CoV-2; conditions: by covalently modifying cysteine in the catalytic diad; cited from earlier work
# [5] = system: honey bee pupal head cells; assay: Cell viability of honey bee pupal head cells (CellTiter-Lumi, intracellular ATP); type: cell-based, honey bee (Apis mellifera)
# Method: Honey bee pupal head cells were prepared as described above and 100 μL cell suspension (2 × 10^6/mL) was inoculated to each well in 96-well plate. The cells were cultured in the presence of either DMSO or ebselen at the indicated concentrations at 33°C for 16 h. The cultured plate was first incubated at room temperature for 10 min followed by adding 100 μL of reagent solution (CellTiter-Lumi Luminescent Cell Viability assay kit, Beyotime). The plate was shaken at room temperature for 2 min to promote cell lysis, and then further incubated for 10 min to stabilize the chemiluminescence signal. The signal was detected using Varioskan LUX multimode microplate reader and depends on intracellular ATP level, thus the relative viability of cells.
# [6] = tested in the presence of 2 mM DTT, 1 μM enzyme, 20 μM peptide substrate
# [7] = compounds tested with or without 2 mM DTT and only effective without DTT
# [8] = peptide substrate 2-20 μM, Michaelis-Menten
# T1 sequence (Q8B3M2 2094-2353): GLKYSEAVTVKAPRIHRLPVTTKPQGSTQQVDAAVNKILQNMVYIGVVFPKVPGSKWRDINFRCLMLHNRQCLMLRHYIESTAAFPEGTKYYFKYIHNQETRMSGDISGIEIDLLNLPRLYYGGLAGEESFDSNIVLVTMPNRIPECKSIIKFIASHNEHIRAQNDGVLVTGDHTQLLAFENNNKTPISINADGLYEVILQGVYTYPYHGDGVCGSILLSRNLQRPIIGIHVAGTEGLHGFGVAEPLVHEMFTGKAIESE
Compound,"IC50 [1, 6]",Inhibition of the main protease of SARS-CoV-2 [4],Dependence of DWV 3C^pro inhibition on dithiothreitol [1],"IC50 [1, 7]",also measured
"[Zn] [Zinc, zinc]",15200 ± 422 µM,,,,
O=c1c(O)c(-c2ccc(O)c(O)c2)oc2cc(O)cc(O)c12 [Quercetin],430 ± 62.8 µM,,,,DWV replication in honey bee pupal cells (DWV [2]): inhibited DWV replication
CC(C)C[C@H](NC(=O)OCc1ccccc1)C(=O)N[C@@H](CC1CCNC1=O)C(O)S(=O)(=O)O (some centres unmarked) [GC376],55.2 ± 4 µM,,,,
CCOC(=O)/C=C/[C@H](C[C@@H]1CCNC1=O)NC(=O)[C@@H](CC(=O)[C@@H](NC(=O)c1cc(C)on1)C(C)C)Cc1ccc(F)cc1 [Rupintrivir],0.36 ± 0.03 µM,,,,IC50 (enterovirus 3C^pro): 1.65 to 7.3 µM; DWV replication in honey bee pupal cells (DWV [2]): inhibited DWV replication; DWV replication in honey bee pupal cells (DWV [2]; listed as rupintrivir): suppresses DWV replication; IC50 (human rhinovirus 3C^pro): 0.005 µM
O=c1c2ccccc2[se]n1-c1ccccc1 [Ebselen],,inhibit the main protease of SARS-CoV-2,only effective without dithiothreitol,1.66 ± 0.02 µM,"Synthesis of the 97 kDa precursor of RdRP and 3C^pro (DWV [3]; DWV-infected pupal head cells, MOI 10, 33°C, 16 h, increasing ebselen concentrations vs DMSO): decreased the synthesis of the 97 kDa precursor of RdRP and 3C^pro in a concentration-dependent manner; DWV replication in honey bee cells (DWV [3]; cultured honey bee cells): inhibited DWV replication; Toxicity to honey bee cells [5]: toxic to the cells; Cell viability (luminescence) vs DMSO ([5]; 30 μM, 16 h, 33°C): no significant difference; Cell viability ([5]; 100 and 250 μM, 16 h, 33°C, vs DMSO): cell viability was reduced"
"PVQAKPEMDNPNPGE ({Dabcyl′}-PVQAKPEMDNPNPGE-{EDANS}) [Dabcyl-PVQAKPEMDNPNPGE-Edans, 15 amino acid fluorogenic FRET peptide substrate with the DWV L-protein/VP2 cleavage site]",,,,,"Km [1, 8]: 4.23 ± 0.256 µM; Vmax [1, 8]: 0.2538 ± 0.0067 µM/min"
CCN(CC)C(=S)SSC(=S)N(CC)CC [Disulfiram],,inhibit the main protease of SARS-CoV-2,only effective without dithiothreitol,35.6 ± 0.8 µM,
CCCCCCNC(=O)n1cc(F)c(=O)[nH]c1=O [Carmofur],,inhibit the main protease of SARS-CoV-2,only effective without dithiothreitol,127 ± 6.2 µM,
"O=C1C(Cl)=C(Cl)C(=O)c2ncccc21 [6,7-dichloroquinoline-5,8-dione]",129 ± 1.8 µM,,,,
